≈ marks a conversion by molar mass, not a printed value.
Legend:
Experiment in all cases: in vitro antibacterial evaluation, MIC by broth dilution
Format in all cases: cell-based
[1] = tested on: Streptococcus sp.; details: broth dilution, 18 hours at 35° C.
Outline: (§1)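 Broth dilution per NCCLS M7-A2 in Mueller-Hinton II medium, inoculum 5×10^5 CFU/mL, antibiotic range 64-0.06 μg/mL. MIC taken as lowest concentration inhibiting growth; Gram-positive panel includes recent clinical isolates resistant to methicillin, penicillin and/or vancomycin.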

[2] = tested on: Staphylococcus sp.; details: broth dilution, 18 hours at 35° C.; for MIC Staphylococcus aureus (GC 1131): strain GC 1131
Outline: as §1

[3] = tested on: Escherichia coli
Outline: as §1

[4] = tested on: Enterococcus sp.; details: broth dilution, 18 hours at 35° C.; for MIC Enterococcus faecalis (ATCC 29212): strain ATCC 29212; for MIC Enterococcus faecium (GC 2243): strain GC 2243; for MIC Enterococcus faecalis (GC 4552): strain GC 4552; for MIC Enterococcus faecalis (GC 4553): strain GC 4553; for MIC Enterococcus faecalis (GC 4554): strain GC 4554; for MIC Enterococcus faecium (GC 4556): strain GC 4556; for MIC Enterococcus faecium (GC 4557): strain GC 4557; for MIC Enterococcus avium (GC 4558): strain GC 4558; for MIC Enterococcus faecalis (GC 6189): strain GC 6189
Outline: as §1

## CC(c1ccccc1)C1NC(=O)CNC(=O)C(CO)NC(=O)C(C(O)C2CNC(=N)N2C2OC(CO)C(O)C(O)C2O)NC(=O)C(C(O)C2CNC(=N)N2)NC(=O)C(Cc2ccc(OC3OC(CO)C(OC4OC5COC(c6ccc(S(C)(=O)=O)cc6)OC5C(O)C4O)C(O)C3O)cc2)NC1=O (centres unmarked) [Example 157]
[1]; Streptococcus agalactiae (GC 4564)
  MIC Streptococcus agalactiae (GC 4564): 16 µg/mL (≈ 10.9 µM)
[1]; Streptococcus pneumoniae (ATCC 6301)
  MIC Streptococcus pneumoniae (ATCC 6301): 4 µg/mL (≈ 2.74 µM)
[1]; Streptococcus pneumoniae (GC 1894)
  MIC Streptococcus pneumoniae (GC 1894): 4 µg/mL (≈ 2.74 µM)
[1]; Streptococcus pneumoniae (GC 4565)
  MIC Streptococcus pneumoniae (GC 4565): 4 µg/mL (≈ 2.74 µM)
[1]; Streptococcus pyogenes (GC 4563)
  MIC Streptococcus pyogenes (GC 4563): 8 µg/mL (≈ 5.47 µM)
[1]; strain ATCC 6301
  MIC Streptococcus pneumoniae (ATCC 6301): 4 µg/mL (≈ 2.74 µM)
[1]; strain GC 1894
  MIC Streptococcus pneumoniae (GC 1894): 4 µg/mL (≈ 2.74 µM)
[1]; strain GC 4563
  MIC Streptococcus pyogenes (GC 4563): 8 µg/mL (≈ 5.47 µM)
[1]; strain GC 4564
  MIC Streptococcus agalactiae (GC 4564): 16 µg/mL (≈ 10.9 µM)
[1]; strain GC 4565
  MIC Streptococcus pneumoniae (GC 4565): 4 µg/mL (≈ 2.74 µM)
[2]; inoculum 5×10^5 CFU/mL
  MIC Staphylococcus aureus (GC 1131): 32 µg/mL (≈ 21.9 µM)
[2]; strain ATCC 29213
  MIC Staphylococcus aureus (ATCC 29213): 32 µg/mL (≈ 21.9 µM)
[2]
  MIC Staphylococcus aureus (GC 1131): 32 µg/mL (≈ 21.9 µM)
[2]; strain GC 3051
  MIC Staphylococcus aureus (GC 3051): 16 µg/mL (≈ 10.9 µM)
[2]; strain GC 3053
  MIC Staphylococcus aureus (GC 3053): 32 µg/mL (≈ 21.9 µM)
[2]; strain GC 4541
  MIC Staphylococcus aureus (GC 4541): 16 µg/mL (≈ 10.9 µM)
[2]; strain GC 4542
  MIC Staphylococcus aureus (GC 4542): 32 µg/mL (≈ 21.9 µM)
[2]; strain GC 4543
  MIC Staphylococcus aureus-SMITH (GC 4543): 16 µg/mL (≈ 10.9 µM)
[2]; strain GC 4544
  MIC Staphylococcus aureus (GC 4544): 32 µg/mL (≈ 21.9 µM)
[2]; strain GC 4545
  MIC Staphylococcus aureus (GC 4545): 16 µg/mL (≈ 10.9 µM)
[2]; strain GC 4546
  MIC Staphylococcus haemolyticus (GC 4546): 16 µg/mL (≈ 10.9 µM)
[2]; strain GC 4547
  MIC Coagulase Negative Staphylococcus (GC 4547): 16 µg/mL (≈ 10.9 µM)
[2]; strain GC 4548
  MIC Coagulase Negative Staphylococcus (GC 4548): 8 µg/mL (≈ 5.47 µM)
[2]; strain GC 4549
  MIC Coagulase Negative Staphylococcus (GC 4549): 8 µg/mL (≈ 5.47 µM)
[2]; strain GC 4551
  MIC Coagulase Negative Staphylococcus (GC 4551): 32 µg/mL (≈ 21.9 µM)
[2]; strain GC 6257
  MIC Coagulase Negative Staphylococcus (GC 6257): 4 µg/mL (≈ 2.74 µM)
[2]; strain SMITH GC 4543
  MIC Staphylococcus aureus-SMITH (GC 4543): 16 µg/mL (≈ 10.9 µM)
[3]; strain ATCC 25922, 18 hours at 35° C.
  MIC Escherichia coli (ATCC 25922): >64 µg/mL
[3]; strain GC 4559, 18 hours at 35° C.
  MIC Escherichia coli (GC 4559): >64 µg/mL
[4]; Enterococcus faecalis (GC 2242)
  MIC Enterococcus faecalis (GC 2242): 64 µg/mL (≈ 43.8 µM)
[4]; Enterococcus faecalis (GC 2691)
  MIC Enterococcus faecalis (GC 2691): >64 µg/mL
[4]; Enterococcus faecalis (GC 3059)
  MIC Enterococcus faecalis (GC 3059): >64 µg/mL
[4]; inoculum 5×10^5 CFU/mL
  MIC Enterococcus faecalis (ATCC 29212): >64 µg/mL
  MIC Enterococcus faecium (GC 2243): 64 µg/mL (≈ 43.8 µM)
  MIC Enterococcus faecalis (GC 4552): >64 µg/mL
  MIC Enterococcus faecalis (GC 4553): >64 µg/mL
  MIC Enterococcus faecalis (GC 4554): >64 µg/mL
  MIC Enterococcus faecium (GC 4556): >64 µg/mL
  MIC Enterococcus faecium (GC 4557): 8 µg/mL (≈ 5.47 µM)
  MIC Enterococcus avium (GC 4558): 64 µg/mL (≈ 43.8 µM)
  MIC Enterococcus faecalis (GC 6189): >64 µg/mL
[4]
  MIC Enterococcus faecalis (ATCC 29212): >64 µg/mL
  MIC Enterococcus faecium (GC 2243): 64 µg/mL (≈ 43.8 µM)
  MIC Enterococcus faecalis (GC 4552): >64 µg/mL
  MIC Enterococcus faecalis (GC 4553): >64 µg/mL
  MIC Enterococcus faecalis (GC 4554): >64 µg/mL
  MIC Enterococcus faecium (GC 4556): >64 µg/mL
  MIC Enterococcus faecium (GC 4557): 8 µg/mL (≈ 5.47 µM)
  MIC Enterococcus avium (GC 4558): 64 µg/mL (≈ 43.8 µM)
  MIC Enterococcus faecalis (GC 6189): >64 µg/mL
[4]; strain GC 2242
  MIC Enterococcus faecalis (GC 2242): 64 µg/mL (≈ 43.8 µM)
[4]; strain GC 2691
  MIC Enterococcus faecalis (GC 2691): >64 µg/mL
[4]; strain GC 3059
  MIC Enterococcus faecalis (GC 3059): >64 µg/mL
